In patent US12544395B2, “Combination compositions comprising a beta-lactamase inhibitor and uses thereof” (priority 2018, dated 2026):

Columns and labels:
Format in all cases: cell-based
E. coli SI-V502 = experiment: Broth microdilution MIC (strain enzymes: TEM-29, CTX-M15)
E. coli ESBL 4 = experiment: Broth microdilution MIC (strain enzymes: CTX-M15, TEM-1)
K. pneumoniae 153239 = experiment: Broth microdilution MIC (strain enzymes: SHV-11, TEM-1)
E. coli SI-NO36 = experiment: as above
E. coli SI-M004 = experiment: Broth microdilution MIC (strain enzymes: SHV-2, GES-12)
E. coli 25922 = experiment: Broth microdilution MIC (strain enzymes: None detected)

With `CCC(=O)N[C@H]1Cc2cccc(C(=O)O)c2OB1O` [Compound 2, (R)-2-hydroxy-3-propionamido-3,4-dihydro-2H-benzo[e][1,2]oxaborinine-8-carboxylic acid] the “MIC of cefalexin (LEX)” value (E. coli SI-V502; with inhibitor at 1 μg/mL) was 1 µg/mL, the “MIC of cefdinir (CDR)” value (E. coli SI-V502; with inhibitor at 1 μg/mL) was 1 µg/mL and the “MIC of cefixime (CFM)” value (E. coli SI-V502; with inhibitor at 1 μg/mL) was 0.25 µg/mL. The “MIC of ceftibuten (CTB)” value (E. coli SI-V502; with inhibitor at 1 μg/mL) was 0.25 µg/mL, the “MIC of cefalexin (LEX)” value (E. coli SI-V502; with inhibitor at 2 μg/mL) was 0.5 µg/mL and the “MIC of cefdinir (CDR)” value (E. coli SI-V502; with inhibitor at 2 μg/mL) was 0.5 µg/mL. For the same compound, the “MIC of cefixime (CFM)” value (E. coli SI-V502; with inhibitor at 2 μg/mL) was 0.5 µg/mL, the “MIC of ceftibuten (CTB)” value (E. coli SI-V502; with inhibitor at 2 μg/mL) was 0.25 µg/mL and the “MIC of cefalexin (LEX)” value (E. coli SI-V502; with inhibitor at 4 μg/mL) was 0.5 µg/mL. For the same compound, the “MIC of cefdinir (CDR)” value (E. coli SI-V502; with inhibitor at 4 μg/mL) was 0.5 µg/mL, the “MIC of cefixime (CFM)” value (E. coli SI-V502; with inhibitor at 4 μg/mL) was 0.25 µg/mL and the “MIC of ceftibuten (CTB)” value (E. coli SI-V502; with inhibitor at 4 μg/mL) was 0.125 µg/mL. The “MIC of cefalexin (LEX)” value (E. coli ESBL 4; with inhibitor at 1 μg/mL) was 2 µg/mL, the “MIC of cefdinir (CDR)” value (E. coli ESBL 4; with inhibitor at 1 μg/mL) was 2 µg/mL and the “MIC of cefixime (CFM)” value (E. coli ESBL 4; with inhibitor at 1 μg/mL) was 0.5 µg/mL. For the same compound, the “MIC of ceftibuten (CTB)” value (E. coli ESBL 4; with inhibitor at 1 μg/mL) was 0.25 µg/mL, the “MIC of cefalexin (LEX)” value (E. coli ESBL 4; with inhibitor at 2 μg/mL) was 1 µg/mL and the “MIC of cefdinir (CDR)” value (E. coli ESBL 4; with inhibitor at 2 μg/mL) was 1 µg/mL. The “MIC of cefixime (CFM)” value (E. coli ESBL 4; with inhibitor at 2 μg/mL) was 0.25 µg/mL, the “MIC of ceftibuten (CTB)” value (E. coli ESBL 4; with inhibitor at 2 μg/mL) was 0.125 µg/mL and the “MIC of cefalexin (LEX)” value (E. coli ESBL 4; with inhibitor at 4 μg/mL) was 0.5 µg/mL. For the same compound, the “MIC of cefdinir (CDR)” value (E. coli ESBL 4; with inhibitor at 4 μg/mL) was 0.5 µg/mL, the “MIC of cefixime (CFM)” value (E. coli ESBL 4; with inhibitor at 4 μg/mL) was 0.25 µg/mL and the “MIC of ceftibuten (CTB)” value (E. coli ESBL 4; with inhibitor at 4 μg/mL) was 0.25 µg/mL. The “MIC of cefalexin (LEX)” value (K. pneumoniae 153239; with inhibitor at 1 μg/mL) was 0.5 µg/mL, the “MIC of cefdinir (CDR)” value (K. pneumoniae 153239; with inhibitor at 1 μg/mL) was 0.5 µg/mL and the “MIC of cefixime (CFM)” value (K. pneumoniae 153239; with inhibitor at 1 μg/mL) was 0.125 µg/mL. For the same compound, the “MIC of ceftibuten (CTB)” value (K. pneumoniae 153239; with inhibitor at 1 μg/mL) was 0.06 µg/mL, the “MIC of cefalexin (LEX)” value (K. pneumoniae 153239; with inhibitor at 2 μg/mL) was 0.25 µg/mL and the “MIC of cefdinir (CDR)” value (K. pneumoniae 153239; with inhibitor at 2 μg/mL) was 0.25 µg/mL. For the same compound, the “MIC of cefixime (CFM)” value (K. pneumoniae 153239; with inhibitor at 2 μg/mL) was 0.5 µg/mL, the “MIC of ceftibuten (CTB)” value (K. pneumoniae 153239; with inhibitor at 2 μg/mL) was 0.125 µg/mL and the “MIC of cefalexin (LEX)” value (K. pneumoniae 153239; with inhibitor at 4 μg/mL) was 0.25 µg/mL. For the same compound, the “MIC of cefdinir (CDR)” value (K. pneumoniae 153239; with inhibitor at 4 μg/mL) was 0.25 µg/mL, the “MIC of cefixime (CFM)” value (K. pneumoniae 153239; with inhibitor at 4 μg/mL) was 0.25 µg/mL and the “MIC of ceftibuten (CTB)” value (K. pneumoniae 153239; with inhibitor at 4 μg/mL) was 0.06 µg/mL. For the same compound, the “MIC of cefalexin (LEX)” value (E. coli SI-NO36; with inhibitor at 1 μg/mL) was 0.125 µg/mL, the “MIC of cefdinir (CDR)” value (E. coli SI-NO36; with inhibitor at 1 μg/mL) was 0.125 µg/mL and the “MIC of cefixime (CFM)” value (E. coli SI-NO36; with inhibitor at 1 μg/mL) was 0.5 µg/mL. For the same compound, the “MIC of ceftibuten (CTB)” value (E. coli SI-NO36; with inhibitor at 1 μg/mL) was 0.06 µg/mL, the “MIC of cefalexin (LEX)” value (E. coli SI-NO36; with inhibitor at 2 μg/mL) was 0.125 µg/mL and the “MIC of cefdinir (CDR)” value (E. coli SI-NO36; with inhibitor at 2 μg/mL) was 0.125 µg/mL. For the same compound, the “MIC of cefixime (CFM)” value (E. coli SI-NO36; with inhibitor at 2 μg/mL) was 0.25 µg/mL, the “MIC of ceftibuten (CTB)” value (E. coli SI-NO36; with inhibitor at 2 μg/mL) was 0.125 µg/mL and the “MIC of cefalexin (LEX)” value (E. coli SI-NO36; with inhibitor at 4 μg/mL) was 0.25 µg/mL. The “MIC of cefdinir (CDR)” value (E. coli SI-NO36; with inhibitor at 4 μg/mL) was 0.25 µg/mL, the “MIC of cefixime (CFM)” value (E. coli SI-NO36; with inhibitor at 4 μg/mL) was 0.5 µg/mL and the “MIC of ceftibuten (CTB)” value (E. coli SI-NO36; with inhibitor at 4 μg/mL) was 0.06 µg/mL. The “MIC of cefalexin (LEX)” value (E. coli SI-M004; with inhibitor at 1 μg/mL) was 0.5 µg/mL, the “MIC of cefdinir (CDR)” value (E. coli SI-M004; with inhibitor at 1 μg/mL) was 0.5 µg/mL and the “MIC of cefixime (CFM)” value (E. coli SI-M004; with inhibitor at 1 μg/mL) was 4 µg/mL. The “MIC of ceftibuten (CTB)” value (E. coli SI-M004; with inhibitor at 1 μg/mL) was 0.25 µg/mL, the “MIC of cefalexin (LEX)” value (E. coli SI-M004; with inhibitor at 2 μg/mL) was 0.5 µg/mL and the “MIC of cefdinir (CDR)” value (E. coli SI-M004; with inhibitor at 2 μg/mL) was 0.5 µg/mL. The “MIC of cefixime (CFM)” value (E. coli SI-M004; with inhibitor at 2 μg/mL) was 4 µg/mL, the “MIC of ceftibuten (CTB)” value (E. coli SI-M004; with inhibitor at 2 μg/mL) was 0.125 µg/mL and the “MIC of cefalexin (LEX)” value (E. coli SI-M004; with inhibitor at 4 μg/mL) was 0.5 µg/mL. The “MIC of cefdinir (CDR)” value (E. coli SI-M004; with inhibitor at 4 μg/mL) was 0.5 µg/mL, the “MIC of cefixime (CFM)” value (E. coli SI-M004; with inhibitor at 4 μg/mL) was 1 µg/mL and the “MIC of ceftibuten (CTB)” value (E. coli SI-M004; with inhibitor at 4 μg/mL) was 0.125 µg/mL. The “MIC of cefalexin (LEX)” value (E. coli 25922; with inhibitor at 1 μg/mL) was 0.125 µg/mL, the “MIC of cefdinir (CDR)” value (E. coli 25922; with inhibitor at 1 μg/mL) was 0.125 µg/mL and the “MIC of cefixime (CFM)” value (E. coli 25922; with inhibitor at 1 μg/mL) was 0.125 µg/mL. The “MIC of ceftibuten (CTB)” value (E. coli 25922; with inhibitor at 1 μg/mL) was 0.125 µg/mL, the “MIC of cefalexin (LEX)” value (E. coli 25922; with inhibitor at 2 μg/mL) was 0.125 µg/mL and the “MIC of cefdinir (CDR)” value (E. coli 25922; with inhibitor at 2 μg/mL) was 0.125 µg/mL.
